In brackets after ≈: the same amount, converted by molar mass. Positions of bridges follow the written chain, without caps; N, C: chain ends. Non-standard residues stand in square brackets, D forms with d. Residues, ends and D or L forms follow the SMILES beside them.
Tests used:
[1] = Dog pivotal repeat-dose toxicity study; type: in vivo; settings: for Safety margin: human starting dose lower than NOAEL: 3 mg/m^2 human starting dose
Procedure: The proposed clinical trial will be a multicenter, open-label, dose-escalation, safety, pharmacodynamic and pharmacokinetic study in patients with advanced solid tumors administered GO-203-2c IV over 60 min once per day for 21 consecutive days; this dosing regimen will be repeated every 28 days. Since the majority of the treatment-related findings in rats and dogs were localized at the infusion site or were secondary to the infusion site reactions, the no-observed-adverse-effect-level (NOAEL) for systemic toxicity in the pivotal repeat-dose rat toxicity study was determined to be 5 mg/kg/day. The highest non-severely toxic dose (HNSTD), which was also considered the NOAEL, was established as 1 mg/kg/day in the dog pivotal repeat-dose toxicity study. For vascular injury at the injection site, the NOAEL in rats is […]. This concentration rate is 25-fold greater than the estimated concentration rate for humans (0.83 μg/mL/min) at the recommended starting dose of 3 mg/m2/day (assumes a body mass of 1.65 m2).

Solubility = type: physicochemical; settings: for solubility: as peptide
[2] = Redox conversion in the presence of glutathione; type: physicochemical; settings: in the presence of low levels of glutathione
From the text: The drug substance is isolated as the disulfide, with the disulfide bond cyclizing the D-cys10 and D-cys12 residues. The synthesis, cleavage, oxidation and purification steps use standard solid phase procedures as described in the literature. A solution phase procedure for converting the peptide to the cyclic disulfide was developed. […] The biological properties of GO-203-2c will in part be governed by glutathione, which provides a significant portion of in vivo redox buffering capacity as mentioned above. Total glutathione levels approximate 20-30 μM in blood plasma, 0.5 mM in whole blood, and 5-10 mM intracellularly. […] Intracellular glutathione concentrations are sufficient to convert GO-203-2c (disulfide) to the GO-203-2 (dithiol) species that binds to the biological target, MUC1-CD.

muscarinic M2 receptor = muscarinic M2 receptor (Homo sapiens, UniProt P08172); assay: biochemical
[3] = test system: ZR-75-1 Breast cancer cells; assay: Inhibition of cell proliferation, trypan blue exclusion (Table 1); type: cell-based, human; settings: 5 μM peptide every day, 6-day treatment
Procedure: Cells (ZR-75-1 breast carcinoma or H-1975 non-small cell lung carcinoma) were plated separately in 24-well plates for 24 hours prior to treatment with different peptides. The cells were then treated with 5 μM (final concentration) of different peptides every day for 4-6 days. On the day of termination, cells were washed two times with PBS and trypsinized with 0.3 ml of Trypsin/EDTA. Cell growth media was used to stop the trypsin reaction. Following washing, the cells were centrifuged and the cell pellets were re-suspended in PBS for counting in hemacytometer.
The trypan blue dye exclusion method was used to determine the number of viable cells present in a cell suspension. Cell suspension was mixed as 1:1 with the trypan blue dye and then visually examined in a hemacytometer. A viable cell will have a clear cytoplasm whereas a non-viable/dead cell will be stained with trypan blue dye. By doing this trypan blue exclusion method, viable cell numbers were counted and percent inhibition of proliferation was then calculated comparing with untreated controls.

[4] = test system: ZR-75-1 human breast carcinoma xenograft; assay: ZR-75-1 human breast carcinoma xenograft model, daily dosing for 21 days; type: in vivo, mouse; settings: nu/nu mice
Procedure: Efficacy of GO-203-2c was evaluated in a ZR-75-1 human breast carcinoma xenograft model. Female nu/nu mice (20-30 g; Charles River Laboratories, Wilmington, Mass.) were injected in the thigh with 5 million ZR-75-1 cells in Matrigel suspension. Mice also received subcutaneous 17-β-estradiol pellets. When tumors reached 100-200 mm^3 in size (approximately 12-15 days after implantation), mice were split into 4 groups of 5 mice and administered the following treatments daily for 21 days: phosphate-buffered saline (PBS) IP, 1 mg/kg GO-203-2c IV, 4 mg/kg GO-203-2c IV or 4 mg/kg control peptide CP-3 IV. Each animal was sacrificed when the tumor reached the predetermined endpoint size (˜2500 mm^3) or when the animals remained tumor-free for 180 days after implantation of the tumor cells.

adrenergic α1B receptor = adrenergic α1B receptor (Homo sapiens, UniProt P35368); assay: biochemical
H1975 NSCLC = settings: human
Procedure: (§1) GO-203-2 and GO-203-2c were evaluated for ability to inhibit proliferation of murine and human carcinoma cell lines in vitro. Test compound (5 μM final concentration) was added to tumor cell cultures daily for 5 to 6 days, and cell viability was determined by trypan blue dye exclusion.

A549 NSCLC = settings: human
Procedure: as §1

[5] = test system: MiaPaCa-2 pancreatic carcinoma; settings: human
Procedure: as §1

KW-807 LN NSCLC = settings: mouse
Procedure: as §1

KW-814 T6 NSCLC = settings: mouse
Procedure: as §1

MCF-7 breast carcinoma = settings: human
Procedure: as §1

H1650 NSCLC = settings: human
Procedure: as §1

ZR-75-1 breast carcinoma = settings: human
Procedure: as §1

dopamine D1 receptor = dopamine D1 receptor (Homo sapiens, UniProt P21728); assay: biochemical
MUC1-CD = MUC1-CD oligomerization in transfected HEK 293T cells, species comparison; type: cell-based; settings: MUC1-CD from rat, dog and human compared
Procedure: Studies were also conducted to confirm pharmacological relevance of the rodent and nonrodent species chosen for toxicology studies, namely the rat and dog, respectively. MUC1-CD amino acid sequence was determined to be greater than 80% identical between rat, dog and human proteins, and similar expression of MUC1 was found in stomach, intestinal and lung epithelium from the different species using immunohistochemical staining. […] The results of these studies indicate that potential MUC1-CD targets in the rat, dog and human are similar with respect to sequence, tissue expression and responsiveness to inhibition of oligomerization by GO-203-2c, and confirm pharmacological relevance of the species chosen for nonclinical safety assessment of GO-203-2c.

adrenergic α1B receptor, sequence (P35368 whole entry): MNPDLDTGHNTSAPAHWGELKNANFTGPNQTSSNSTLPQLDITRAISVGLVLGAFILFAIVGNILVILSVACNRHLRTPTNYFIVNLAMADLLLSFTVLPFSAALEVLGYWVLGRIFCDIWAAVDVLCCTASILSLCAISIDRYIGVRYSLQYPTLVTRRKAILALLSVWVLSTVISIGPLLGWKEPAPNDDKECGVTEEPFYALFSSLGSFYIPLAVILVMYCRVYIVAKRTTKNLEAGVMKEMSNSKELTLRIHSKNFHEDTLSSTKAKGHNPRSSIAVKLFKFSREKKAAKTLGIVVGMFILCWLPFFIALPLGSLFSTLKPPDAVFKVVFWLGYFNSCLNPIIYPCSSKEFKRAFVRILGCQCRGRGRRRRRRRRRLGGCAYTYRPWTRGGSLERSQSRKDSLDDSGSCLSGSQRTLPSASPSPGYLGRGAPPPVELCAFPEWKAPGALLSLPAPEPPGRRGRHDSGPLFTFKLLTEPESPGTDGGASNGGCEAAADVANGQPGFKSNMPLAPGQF
muscarinic M2 receptor, sequence (P08172 whole entry): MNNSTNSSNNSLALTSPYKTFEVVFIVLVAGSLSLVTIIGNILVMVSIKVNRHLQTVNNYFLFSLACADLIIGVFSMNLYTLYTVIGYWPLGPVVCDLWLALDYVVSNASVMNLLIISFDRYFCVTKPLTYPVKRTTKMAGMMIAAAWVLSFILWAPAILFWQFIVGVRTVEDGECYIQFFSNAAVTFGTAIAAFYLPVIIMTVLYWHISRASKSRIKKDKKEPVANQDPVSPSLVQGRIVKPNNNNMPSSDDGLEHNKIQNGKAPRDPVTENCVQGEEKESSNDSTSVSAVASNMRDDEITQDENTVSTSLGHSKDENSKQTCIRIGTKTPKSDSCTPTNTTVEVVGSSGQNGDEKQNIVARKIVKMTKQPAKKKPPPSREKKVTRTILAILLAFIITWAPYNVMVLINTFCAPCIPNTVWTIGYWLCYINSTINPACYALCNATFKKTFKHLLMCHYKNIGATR
dopamine D1 receptor, sequence (P21728 whole entry, species assumed): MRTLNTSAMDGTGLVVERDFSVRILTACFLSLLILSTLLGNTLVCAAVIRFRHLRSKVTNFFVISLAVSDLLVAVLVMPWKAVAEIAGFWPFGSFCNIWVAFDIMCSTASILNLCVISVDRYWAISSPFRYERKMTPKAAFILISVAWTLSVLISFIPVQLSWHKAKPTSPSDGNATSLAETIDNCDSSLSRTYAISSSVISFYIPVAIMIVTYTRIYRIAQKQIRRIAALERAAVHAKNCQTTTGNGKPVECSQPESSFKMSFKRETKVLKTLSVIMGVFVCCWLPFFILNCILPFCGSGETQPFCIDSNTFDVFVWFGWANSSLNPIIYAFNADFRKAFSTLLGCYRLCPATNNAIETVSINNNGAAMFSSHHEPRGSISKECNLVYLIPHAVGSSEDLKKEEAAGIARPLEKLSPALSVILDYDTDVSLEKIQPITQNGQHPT

## CC(=O)N[C@H](CCCNC(=N)N)C(=O)N[C@H](CCCNC(=N)N)C(=O)N[C@H](CCCNC(=N)N)C(=O)N[C@H](CCCNC(=N)N)C(=O)N[C@H](CCCNC(=N)N)C(=O)N[C@H](CCCNC(=N)N)C(=O)N[C@H](CCCNC(=N)N)C(=O)N[C@H](CCCNC(=N)N)C(=O)N[C@H](CCCNC(=N)N)C(=O)N[C@@H]1CSSC[C@H](C(=O)N[C@H](CCCNC(=N)N)C(=O)N[C@H](CCCNC(=N)N)C(=O)N[C@H](CCCCN)C(=O)N[C@H](CC(N)=O)C(N)=O)NC(=O)[C@@H](CCC(N)=O)NC1=O [GO-203-2c, Ac-(D)Arg-(D)Arg-(D)Arg-(D)Arg-(D)Arg-(D)Arg-(D)Arg-(D)Arg-(D)Arg-(D)Cys-(D)Gln-(D)Cys-(D)Arg-(D)Arg-(D)Lys-(D)Asn-NH2 disulfide] (Ac-[dR][dR][dR][dR][dR][dR][dR][dR][dR][dC][dQ][dC][dR][dR][dK][dN]-NH2; disulfide 10-12)
[1]; body surface area basis
  HNSTD or NOAEL: 20 mg/m2/day
[1]; in vivo, repeat-dose IV, read-out: Highest non-severely toxic dose (HNSTD), also considered the NOAEL
  NOAEL: 1 mg/kg/day
[1]; mg/kg basis
  Safety margin: human starting dose lower than NOAEL: 12 fold
[1]; mg/m^2 basis
  Safety margin: human starting dose lower than NOAEL: 6.7 fold
Solubility; 10 mM acetate pH 3.0-4.0, 0.9% NaCl
  solubility: > 50 mg/mL
Solubility; 10 mM acetate pH 4.0
  solubility: 7 to 37 mg/mL (≈ 2.98 to 15.7 mM)
Solubility; 1% (v/v) aqueous acetic acid
  solubility: > 110 mg/mL
Solubility; 10% (v/v) aqueous acetonitrile
  solubility: > 110 mg/mL
Solubility; solutions in water, 1% aqueous acetic acid or 10% aqueous acetonitrile
  Time without gel formation: at least 5 days
Solubility; water
  solubility: > 240 mg/mL
[2]
  Conversion of disulfide to reduced (dithiol) form: readily re-forms the reduced (dithiol) GO-203-2 peptide
Muscarinic M2 receptor
  IC50: 3 to 8 µM
[3]
  Avg (viable cell number of Groups 1-3): 9.83
[3]; vs untreated control
  % inhibition: 58.69%
[3]; well having 10,000 cells
  Group-1 (viable cell number, individual well): 9.18
  Group-2 (viable cell number, individual well): 11.22
  Group-3 (viable cell number, individual well): 8.55
[4]; 1 mg/kg IV daily for 21 days
  Tumor response: Partial tumor regression
[4]; 4 mg/kg IV daily for 21 days
  Tumor response: complete regression of tumor growth
Adrenergic α1B receptor
  IC50: 3 to 8 µM
H1975 NSCLC
  % Inhibition of cell viability: 46.2%
A549 NSCLC
  % Inhibition of cell viability: 73.1%
[5]
  % Inhibition of cell viability: 81.5%
KW-807 LN NSCLC
  % Inhibition of cell viability: 40.3%
KW-814 T6 NSCLC
  % Inhibition of cell viability: 70.1%
MCF-7 breast carcinoma
  % Inhibition of cell viability: 87.7%
H1650 NSCLC
  % Inhibition of cell viability: 89.0%
ZR-75-1 breast carcinoma
  % Inhibition of cell viability: 43.6%
Dopamine D1 receptor
  IC50: 10.5 µM
MUC1-CD
  Inhibition of MUC1-CD oligomerization: in an equivalent manner
